IC50 data for 2 compounds are collected here from ChEMBL document CHEMBL1201862, “PubChem BioAssay data set” (2004).

Calls of active or inactive are those of the source. Cut-off read from the data, not from the text of the source: actives have a measured IC50 and inactives only a lower limit.

The target of this assay is Envelope glycoprotein gp160 (Human immunodeficiency virus 1, UniProt Q6QLK5). Put plainly: cell-free HIV fusion peptide-binding blockers – biochemical, uHTS, fluorescence dequenching, […] (AID 1986).
Sequence of Envelope glycoprotein gp160 (Q6QLK5 whole entry, the tested form may be a part): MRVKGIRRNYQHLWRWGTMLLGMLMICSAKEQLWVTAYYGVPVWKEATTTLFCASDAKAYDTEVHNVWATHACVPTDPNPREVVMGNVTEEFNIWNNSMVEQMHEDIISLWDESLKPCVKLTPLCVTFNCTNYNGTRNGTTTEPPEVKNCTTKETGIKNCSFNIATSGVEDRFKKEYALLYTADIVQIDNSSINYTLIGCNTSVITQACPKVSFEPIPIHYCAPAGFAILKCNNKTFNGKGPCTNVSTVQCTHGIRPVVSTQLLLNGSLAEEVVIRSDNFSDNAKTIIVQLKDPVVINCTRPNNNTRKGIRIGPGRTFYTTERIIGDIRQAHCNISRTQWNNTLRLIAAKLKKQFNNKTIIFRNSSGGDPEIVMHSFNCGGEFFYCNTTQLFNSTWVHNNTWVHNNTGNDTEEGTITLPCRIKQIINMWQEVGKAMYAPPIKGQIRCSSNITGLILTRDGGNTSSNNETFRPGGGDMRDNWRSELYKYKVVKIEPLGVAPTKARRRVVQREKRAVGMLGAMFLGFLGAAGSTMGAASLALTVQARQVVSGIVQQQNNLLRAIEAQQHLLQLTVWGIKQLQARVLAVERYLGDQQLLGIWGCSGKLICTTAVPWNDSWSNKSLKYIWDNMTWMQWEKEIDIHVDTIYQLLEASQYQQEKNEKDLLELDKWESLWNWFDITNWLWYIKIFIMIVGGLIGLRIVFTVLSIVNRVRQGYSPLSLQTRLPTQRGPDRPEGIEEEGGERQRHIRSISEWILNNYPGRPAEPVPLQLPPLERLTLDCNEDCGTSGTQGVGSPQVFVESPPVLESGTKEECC

For `CC1=C(C(=O)OC(C)C)C(c2ccc(Cl)cc2)n2c(s/c(=C\c3ccc(OCC(=O)O)cc3)c2=O)=N1` (configuration not stated), the half-maximal inhibitory concentration (IC50) (as a rule, the concentration that gives 50% inhibition) is 13.4 µM (active). The result for `CN(C)S(=O)(=O)c1cccc(-c2nn(-c3ccccc3)cc2/C=C2\SC(=S)N(CC(=O)O)C2=O)c1` reads 15.3 µM (active).
